In PMC7265341, “Quantifying CDK inhibitor selectivity in live cells” (Nature Communications, 2020):
Read-outs that look alike come from different tables or passages of the source.

What was measured:
CDK15/Cyclin Y = CDK15/Cyclin Y (Homo sapiens, UniProt Q96Q40); test: NanoBRET live-cell target engagement, NanoLuc-CDK15/Cyclin Y in HEK-293; type: binding; settings: CDK15/Y; for IC50: read-out: IC50; for inhibition at 10 µM: read-out: Inhibition at 10µM (%)
CDK9/Cyclin K = CDK9/Cyclin K (Homo sapiens, UniProt P50750); test: NanoBRET live-cell target engagement, NanoLuc-CDK9/Cyclin K in HEK-293; type: binding; settings: CDK9/K, read-out: Inhibition at 10µM (%)
CDK9/Cyclin K, sequence (P50750 whole entry): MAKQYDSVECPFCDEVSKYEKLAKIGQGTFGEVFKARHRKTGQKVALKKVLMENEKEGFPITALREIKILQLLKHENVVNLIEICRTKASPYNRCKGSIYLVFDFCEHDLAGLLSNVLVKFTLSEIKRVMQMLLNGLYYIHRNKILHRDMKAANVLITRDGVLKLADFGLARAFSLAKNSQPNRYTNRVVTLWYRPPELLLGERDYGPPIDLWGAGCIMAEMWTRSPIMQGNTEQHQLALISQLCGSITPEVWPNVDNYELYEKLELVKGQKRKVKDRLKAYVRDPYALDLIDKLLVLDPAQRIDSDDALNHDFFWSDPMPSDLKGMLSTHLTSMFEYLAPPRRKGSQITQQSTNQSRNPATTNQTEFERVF
CDK9/Cyclin K, sequence (O75909 whole entry partner): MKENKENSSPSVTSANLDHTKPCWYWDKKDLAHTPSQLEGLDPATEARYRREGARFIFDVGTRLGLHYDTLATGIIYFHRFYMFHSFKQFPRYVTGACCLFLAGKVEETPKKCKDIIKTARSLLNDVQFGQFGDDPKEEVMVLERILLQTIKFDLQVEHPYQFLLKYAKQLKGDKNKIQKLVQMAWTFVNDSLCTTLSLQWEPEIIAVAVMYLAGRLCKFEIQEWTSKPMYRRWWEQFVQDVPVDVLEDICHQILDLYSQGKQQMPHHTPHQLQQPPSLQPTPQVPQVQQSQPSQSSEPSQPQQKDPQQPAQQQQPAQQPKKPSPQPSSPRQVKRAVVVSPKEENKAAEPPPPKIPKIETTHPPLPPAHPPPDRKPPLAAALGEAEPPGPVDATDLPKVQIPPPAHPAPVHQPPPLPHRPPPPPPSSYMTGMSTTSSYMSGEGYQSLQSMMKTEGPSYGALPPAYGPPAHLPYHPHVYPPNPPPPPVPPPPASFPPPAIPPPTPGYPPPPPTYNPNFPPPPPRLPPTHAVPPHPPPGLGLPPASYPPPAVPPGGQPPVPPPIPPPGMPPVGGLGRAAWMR

CDK11B/Cyclin L2 = CDK11B/Cyclin L2 (Homo sapiens, UniProt P21127); test: NanoBRET live-cell target engagement, CDK11B-NanoLuc/Cyclin L2 in HEK-293; type: binding; settings: CDK11b/L2, read-out: Inhibition at 10µM (%)
CDK11B/Cyclin L2, sequence (P21127 1-782 isoform P21127-2): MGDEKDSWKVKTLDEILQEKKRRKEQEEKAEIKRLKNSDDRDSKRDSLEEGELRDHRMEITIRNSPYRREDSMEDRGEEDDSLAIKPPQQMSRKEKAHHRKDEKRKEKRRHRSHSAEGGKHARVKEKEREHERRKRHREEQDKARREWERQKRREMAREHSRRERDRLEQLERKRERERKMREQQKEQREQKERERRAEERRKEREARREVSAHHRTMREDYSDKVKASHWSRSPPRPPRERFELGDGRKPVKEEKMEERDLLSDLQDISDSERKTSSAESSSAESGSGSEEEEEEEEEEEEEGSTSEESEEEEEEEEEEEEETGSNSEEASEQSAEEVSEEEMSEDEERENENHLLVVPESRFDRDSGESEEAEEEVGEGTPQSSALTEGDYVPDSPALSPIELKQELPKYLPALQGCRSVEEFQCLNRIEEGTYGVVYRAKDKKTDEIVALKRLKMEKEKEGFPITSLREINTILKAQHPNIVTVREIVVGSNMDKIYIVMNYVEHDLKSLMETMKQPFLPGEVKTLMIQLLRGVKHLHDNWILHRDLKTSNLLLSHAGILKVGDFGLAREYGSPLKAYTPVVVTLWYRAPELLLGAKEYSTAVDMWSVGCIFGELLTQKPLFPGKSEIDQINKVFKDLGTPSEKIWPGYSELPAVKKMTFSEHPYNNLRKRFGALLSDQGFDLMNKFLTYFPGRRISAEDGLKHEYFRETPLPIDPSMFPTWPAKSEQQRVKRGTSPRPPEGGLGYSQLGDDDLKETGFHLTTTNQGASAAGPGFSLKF

CDK20/Cyclin H = CDK20/Cyclin H (Homo sapiens, UniProt Q8IZL9); test: NanoBRET live-cell target engagement, NanoLuc-CDK20/Cyclin H in HEK-293; type: binding; settings: CDK20/H, read-out: Inhibition at 10µM (%)
CDK19/Cyclin C = CDK19/Cyclin C (Homo sapiens, UniProt Q9BWU1); test: NanoBRET live-cell target engagement, NanoLuc-CDK19/Cyclin C in HEK-293; settings: read-out: Inhibition at 10µM (%), CDK19/C
CDK19/Cyclin C, sequence (Q9BWU1 whole entry): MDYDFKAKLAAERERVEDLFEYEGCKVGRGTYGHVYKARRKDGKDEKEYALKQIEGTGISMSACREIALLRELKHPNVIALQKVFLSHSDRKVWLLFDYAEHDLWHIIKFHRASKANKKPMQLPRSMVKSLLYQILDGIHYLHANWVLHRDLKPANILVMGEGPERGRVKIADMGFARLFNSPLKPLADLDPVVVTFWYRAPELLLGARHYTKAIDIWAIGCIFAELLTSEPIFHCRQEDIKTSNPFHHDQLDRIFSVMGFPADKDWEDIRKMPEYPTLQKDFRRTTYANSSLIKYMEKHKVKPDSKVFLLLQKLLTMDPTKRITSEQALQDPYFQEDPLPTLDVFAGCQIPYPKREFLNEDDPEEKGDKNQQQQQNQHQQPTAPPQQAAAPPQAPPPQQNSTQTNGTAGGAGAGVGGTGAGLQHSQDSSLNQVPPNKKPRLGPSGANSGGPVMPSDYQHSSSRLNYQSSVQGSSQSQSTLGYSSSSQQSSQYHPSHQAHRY
CDK19/Cyclin C, sequence (P24863 whole entry partner): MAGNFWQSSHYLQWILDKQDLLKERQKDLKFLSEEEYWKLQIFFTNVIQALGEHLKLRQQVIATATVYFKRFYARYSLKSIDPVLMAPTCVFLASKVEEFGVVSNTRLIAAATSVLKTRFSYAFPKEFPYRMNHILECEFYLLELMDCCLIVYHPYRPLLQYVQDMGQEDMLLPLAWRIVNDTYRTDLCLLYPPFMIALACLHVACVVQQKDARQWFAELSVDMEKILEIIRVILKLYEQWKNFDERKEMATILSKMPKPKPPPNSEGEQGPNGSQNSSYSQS

CDK14/Cyclin Y = CDK14/Cyclin Y (Homo sapiens, UniProt O94921); test: NanoBRET live-cell target engagement, CDK14-NanoLuc/Cyclin Y in HEK-293; type: binding; settings: CDK14/Y, read-out: Inhibition at 10µM (%)
CDK14/Cyclin Y, sequence (O94921 whole entry): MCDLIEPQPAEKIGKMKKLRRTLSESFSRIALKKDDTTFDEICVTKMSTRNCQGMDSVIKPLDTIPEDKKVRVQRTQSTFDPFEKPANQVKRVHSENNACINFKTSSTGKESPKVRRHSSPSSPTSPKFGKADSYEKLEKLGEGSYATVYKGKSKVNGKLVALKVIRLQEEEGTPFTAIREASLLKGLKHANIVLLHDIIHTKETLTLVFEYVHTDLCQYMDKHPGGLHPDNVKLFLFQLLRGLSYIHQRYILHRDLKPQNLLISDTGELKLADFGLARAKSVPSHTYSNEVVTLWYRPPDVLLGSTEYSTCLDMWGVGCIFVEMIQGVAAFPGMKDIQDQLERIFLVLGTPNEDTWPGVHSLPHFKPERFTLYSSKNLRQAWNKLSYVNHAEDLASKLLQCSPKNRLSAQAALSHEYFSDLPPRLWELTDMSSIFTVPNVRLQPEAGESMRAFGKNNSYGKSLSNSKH
CDK14/Cyclin Y, sequence (Q8ND76 whole entry partner): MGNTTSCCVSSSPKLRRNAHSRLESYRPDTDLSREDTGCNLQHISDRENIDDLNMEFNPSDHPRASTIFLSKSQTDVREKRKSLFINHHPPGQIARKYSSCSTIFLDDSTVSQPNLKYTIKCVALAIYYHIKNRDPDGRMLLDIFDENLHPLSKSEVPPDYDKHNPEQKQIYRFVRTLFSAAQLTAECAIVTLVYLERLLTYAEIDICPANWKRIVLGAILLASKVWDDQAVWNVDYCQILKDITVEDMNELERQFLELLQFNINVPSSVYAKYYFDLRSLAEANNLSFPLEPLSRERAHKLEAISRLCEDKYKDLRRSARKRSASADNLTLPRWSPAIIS

CDK18/Cyclin Y = CDK18/Cyclin Y (Homo sapiens, UniProt Q07002); test: NanoBRET live-cell target engagement, CDK18-NanoLuc/Cyclin Y in HEK-293; type: binding; settings: CDK18/Y, read-out: Inhibition at 10µM (%)
CDK7 = CDK7 (Homo sapiens, UniProt P50613); test: NanoBRET live-cell target engagement, NanoLuc-CDK7 in HEK-293; type: binding; settings: CDK7, read-out: Inhibition at 10µM (%)
CDK4/Cyclin D1 = CDK4/Cyclin D1 (Homo sapiens, UniProt P11802); test: NanoBRET live-cell target engagement, NanoLuc-CDK4/Cyclin D1 in HEK-293; type: binding; settings: CDK4/D1, read-out: Inhibition at 10µM (%)
CDK5/CDK5R1 = CDK5/CDK5R1 (Homo sapiens, UniProt Q00535); test: NanoBRET live-cell target engagement, CDK5-NanoLuc/CDK5R1 in HEK-293; type: binding; settings: CDK5/CDK5R1, read-out: Inhibition at 10µM (%)
CDK5/CDK5R1, sequence (Q00535 whole entry): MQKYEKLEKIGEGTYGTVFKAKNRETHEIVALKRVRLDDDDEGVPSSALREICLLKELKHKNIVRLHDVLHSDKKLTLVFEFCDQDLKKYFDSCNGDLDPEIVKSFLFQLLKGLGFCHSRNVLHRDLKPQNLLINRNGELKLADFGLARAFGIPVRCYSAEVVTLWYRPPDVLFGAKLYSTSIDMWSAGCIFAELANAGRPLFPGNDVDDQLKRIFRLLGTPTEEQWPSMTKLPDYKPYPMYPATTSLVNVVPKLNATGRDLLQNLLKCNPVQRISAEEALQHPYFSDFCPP
CDK5/CDK5R1, sequence (Q15078 whole entry partner): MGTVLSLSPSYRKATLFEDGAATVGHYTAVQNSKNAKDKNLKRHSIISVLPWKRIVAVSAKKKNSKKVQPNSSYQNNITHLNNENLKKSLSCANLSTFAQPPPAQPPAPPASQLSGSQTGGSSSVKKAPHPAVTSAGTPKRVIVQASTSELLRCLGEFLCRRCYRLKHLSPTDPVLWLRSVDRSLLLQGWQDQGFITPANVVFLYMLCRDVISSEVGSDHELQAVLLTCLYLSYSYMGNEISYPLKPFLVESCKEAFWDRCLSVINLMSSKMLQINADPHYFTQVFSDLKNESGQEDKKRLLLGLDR

CDK6/Cyclin D1 = CDK6/Cyclin D1 (Homo sapiens, UniProt Q00534); test: NanoBRET live-cell target engagement, NanoLuc-CDK6/Cyclin D1 in HEK-293; type: binding; settings: for inhibition at 10 µM: read-out: Inhibition at 10µM (%)
CDK2/Cyclin E1 = CDK2/Cyclin E1 (Homo sapiens, UniProt P24941); test: NanoBRET live-cell target engagement, CDK2-NanoLuc/Cyclin E1 in HEK-293; type: binding; settings: CDK2/E1, read-out: Inhibition at 10µM (%)
CDK11A/Cyclin L2 = biological target: T1, CDK11A/Cyclin L2 (Homo sapiens, UniProt Q9UQ88); test: NanoBRET live-cell target engagement, CDK11A-NanoLuc/Cyclin L2 in HEK-293; type: binding; settings: CDK11a/L2, read-out: Inhibition at 10µM (%)
T1 sequence (Q9UQ88 1-783): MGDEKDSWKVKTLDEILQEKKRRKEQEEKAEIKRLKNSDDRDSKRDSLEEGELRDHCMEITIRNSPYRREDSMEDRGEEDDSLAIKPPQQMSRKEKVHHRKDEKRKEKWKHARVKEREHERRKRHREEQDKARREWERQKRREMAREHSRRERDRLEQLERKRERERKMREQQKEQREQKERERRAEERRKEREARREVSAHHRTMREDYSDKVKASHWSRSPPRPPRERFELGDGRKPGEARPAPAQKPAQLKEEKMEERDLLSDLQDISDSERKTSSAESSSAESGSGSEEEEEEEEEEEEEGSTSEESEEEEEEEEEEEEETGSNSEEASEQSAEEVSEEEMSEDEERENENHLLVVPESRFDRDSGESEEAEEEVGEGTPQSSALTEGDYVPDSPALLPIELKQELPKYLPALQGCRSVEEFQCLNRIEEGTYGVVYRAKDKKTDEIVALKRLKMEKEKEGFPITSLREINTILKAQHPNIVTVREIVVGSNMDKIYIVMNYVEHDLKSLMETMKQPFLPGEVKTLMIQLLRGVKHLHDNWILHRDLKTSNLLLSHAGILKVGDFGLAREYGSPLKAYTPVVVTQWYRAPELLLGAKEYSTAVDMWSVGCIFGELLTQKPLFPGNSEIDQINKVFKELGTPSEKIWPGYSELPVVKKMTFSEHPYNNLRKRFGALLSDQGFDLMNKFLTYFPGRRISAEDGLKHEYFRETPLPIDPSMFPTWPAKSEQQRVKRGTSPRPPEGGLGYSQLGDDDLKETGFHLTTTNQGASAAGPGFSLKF

CDK16/Cyclin Y = CDK16/Cyclin Y (Homo sapiens, UniProt Q00536); test: NanoBRET live-cell target engagement, CDK16-NanoLuc/Cyclin Y in HEK-293; type: binding; settings: CDK16/Y; for IC50: read-out: IC50; for inhibition at 10 µM: read-out: Inhibition at 10µM (%)
CDK1/Cyclin E1 = CDK1/Cyclin E1 (Homo sapiens, UniProt P06493); test: NanoBRET live-cell target engagement, CDK1-NanoLuc/Cyclin E1 in HEK-293; type: binding; settings: CDK1/E1, read-out: Inhibition at 10µM (%)
CDK8/Cyclin C = CDK8/Cyclin C (Homo sapiens, UniProt P49336); test: NanoBRET live-cell target engagement, NanoLuc-CDK8/Cyclin C in HEK-293; type: binding; settings: CDK8/C, read-out: Inhibition at 10µM (%)
CDK8/Cyclin C, sequence (P49336 whole entry): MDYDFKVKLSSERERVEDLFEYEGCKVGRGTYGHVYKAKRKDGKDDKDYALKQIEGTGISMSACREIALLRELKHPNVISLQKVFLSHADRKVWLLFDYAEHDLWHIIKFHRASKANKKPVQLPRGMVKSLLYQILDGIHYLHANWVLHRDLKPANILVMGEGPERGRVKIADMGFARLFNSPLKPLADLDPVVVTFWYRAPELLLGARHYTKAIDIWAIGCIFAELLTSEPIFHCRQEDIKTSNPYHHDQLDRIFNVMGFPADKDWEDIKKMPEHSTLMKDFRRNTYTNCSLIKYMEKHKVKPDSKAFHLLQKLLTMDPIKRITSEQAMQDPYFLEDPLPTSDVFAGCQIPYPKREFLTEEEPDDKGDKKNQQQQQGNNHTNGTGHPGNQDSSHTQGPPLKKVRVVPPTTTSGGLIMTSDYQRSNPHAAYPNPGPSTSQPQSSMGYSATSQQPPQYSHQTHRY
CDK8/Cyclin C, sequence (P24863 whole entry partner): as the sequence (P24863 whole entry partner) above

CDK10/Cyclin L2 = CDK10/Cyclin L2 (Homo sapiens, UniProt Q15131); test: NanoBRET live-cell target engagement, CDK10-NanoLuc/Cyclin L2 in HEK-293; settings: read-out: Inhibition at 10µM (%), CDK10/L2
CDK17/Cyclin Y = CDK17/Cyclin Y (Homo sapiens, UniProt Q00537); test: NanoBRET live-cell target engagement, CDK17-NanoLuc/Cyclin Y in HEK-293; type: binding; settings: CDK17/Y, read-out: Inhibition at 10µM (%)
CDK3/Cyclin E1 = CDK3/Cyclin E1 (Homo sapiens, UniProt Q00526); test: NanoBRET live-cell target engagement, CDK3-NanoLuc/Cyclin E1 in HEK-293; type: binding; settings: CDK3/E1, read-out: Inhibition at 10µM (%)

CDK15/Cyclin Y, sequence (Q96Q40 whole entry): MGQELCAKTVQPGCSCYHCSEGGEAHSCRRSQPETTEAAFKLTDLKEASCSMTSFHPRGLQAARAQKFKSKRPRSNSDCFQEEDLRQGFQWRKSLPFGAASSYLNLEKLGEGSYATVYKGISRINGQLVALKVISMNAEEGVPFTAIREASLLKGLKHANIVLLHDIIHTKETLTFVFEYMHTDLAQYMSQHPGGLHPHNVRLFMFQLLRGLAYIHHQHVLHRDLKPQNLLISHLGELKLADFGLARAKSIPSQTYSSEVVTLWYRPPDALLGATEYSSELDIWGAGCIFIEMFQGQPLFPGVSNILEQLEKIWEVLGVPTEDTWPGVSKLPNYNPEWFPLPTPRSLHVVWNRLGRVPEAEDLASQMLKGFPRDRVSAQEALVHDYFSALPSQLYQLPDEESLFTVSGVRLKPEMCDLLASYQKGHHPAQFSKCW
CDK15/Cyclin Y, sequence (Q8ND76 whole entry partner): as the sequence (Q8ND76 whole entry partner) above

CNC(=O)c1nn(C)c2c1C(C)(C)Cc1cnc(Nc3ccc(N4CCN(C)CC4)cc3)nc1-2 [Milciclib]
IC50 (CDK15/Cyclin Y; average (± SEM where n=3)): 880 ± 60 nM | inhibition at 10 µM (CDK15/Cyclin Y; average): 86% | IC50 (CDK15/Cyclin Y; experiment 1): 970 nM | inhibition at 10 µM (CDK15/Cyclin Y; experiment 1): 83.8% | IC50 (CDK15/Cyclin Y; experiment 2): 898 nM | inhibition at 10 µM (CDK15/Cyclin Y; experiment 2): 88.1% | IC50 (CDK15/Cyclin Y; experiment 3): 778 nM | inhibition at 10 µM (CDK9/Cyclin K; average): 55.3% | inhibition at 10 µM (CDK9/Cyclin K; experiment 1): 50.1% | inhibition at 10 µM (CDK9/Cyclin K; experiment 2): 60.5% | inhibition at 10 µM (CDK11B/Cyclin L2; average): 14.4% | inhibition at 10 µM (CDK11B/Cyclin L2; experiment 1): 14.6% | inhibition at 10 µM (CDK11B/Cyclin L2; experiment 2): 14.3% | inhibition at 10 µM (CDK20/Cyclin H; experiment 1): 50.1% | inhibition at 10 µM (CDK20/Cyclin H; experiment 2): 36.3% | inhibition at 10 µM (CDK19/Cyclin C; average): 19.2% | inhibition at 10 µM (CDK19/Cyclin C; experiment 1): 44.9% | inhibition at 10 µM (CDK19/Cyclin C; experiment 2): -6.6% | inhibition at 10 µM (CDK14/Cyclin Y; average): 74.3% | inhibition at 10 µM (CDK14/Cyclin Y; experiment 1): 71.9% | inhibition at 10 µM (CDK14/Cyclin Y; experiment 2): 76.8% | inhibition at 10 µM (CDK18/Cyclin Y; average): 84.2% | inhibition at 10 µM (CDK18/Cyclin Y; experiment 1): 83.1% | inhibition at 10 µM (CDK18/Cyclin Y; experiment 2): 85.3% | inhibition at 10 µM (CDK7; average): 92.1% | inhibition at 10 µM (CDK7; experiment 1): 89.4% | inhibition at 10 µM (CDK7; experiment 2): 94.8% | inhibition at 10 µM (CDK4/Cyclin D1; average): 98.1% | inhibition at 10 µM (CDK4/Cyclin D1; experiment 1): 98.8% | inhibition at 10 µM (CDK4/Cyclin D1; experiment 2): 97.4% | inhibition at 10 µM (CDK5/CDK5R1; average): 82.1% | inhibition at 10 µM (CDK5/CDK5R1; experiment 1): 77.8% | inhibition at 10 µM (CDK5/CDK5R1; experiment 2): 86.4% | IC50 (CDK6/Cyclin D1; CDK6/D1, average (± SEM where n=3), read-out: IC50): 110 ± 20 nM | inhibition at 10 µM (CDK6/Cyclin D1; CDK6/D1, average): 96.3% | IC50 (CDK6/Cyclin D1; CDK6/D1, experiment 1, read-out: IC50): 110 nM | inhibition at 10 µM (CDK6/Cyclin D1; CDK6/D1, experiment 1): 96.1% | IC50 (CDK6/Cyclin D1; CDK6/D1, experiment 2, read-out: IC50): 83 nM | inhibition at 10 µM (CDK6/Cyclin D1; CDK6/D1, experiment 2): 96.5% | IC50 (CDK6/Cyclin D1; CDK6/D1, experiment 3, read-out: IC50): 144 nM | IC50 (CDK6/Cyclin D1; live HEK-293, 2 h, mean ± S.E.M. (n=3) or mean (n=2), read-out: IC50 for CDK/cyclin complexes, CDK6/D1): 110 ± 20 nM | inhibition at 10 µM (CDK2/Cyclin E1; average): 76.6% | inhibition at 10 µM (CDK2/Cyclin E1; experiment 1): 75.5% | inhibition at 10 µM (CDK2/Cyclin E1; experiment 2): 77.7% | inhibition at 10 µM (CDK11A/Cyclin L2; average): 22.7% | inhibition at 10 µM (CDK11A/Cyclin L2; experiment 1): 20.3% | inhibition at 10 µM (CDK11A/Cyclin L2; experiment 2): 25% | IC50 (CDK16/Cyclin Y; average (± SEM where n=3)): 300 ± 40 nM | IC50 (CDK16/Cyclin Y; experiment 1): 383 nM | inhibition at 10 µM (CDK16/Cyclin Y; experiment 1): 86.4% | IC50 (CDK16/Cyclin Y; experiment 2): 260 nM | inhibition at 10 µM (CDK16/Cyclin Y; experiment 2): 90.1% | IC50 (CDK16/Cyclin Y; experiment 3): 273 nM | inhibition at 10 µM (CDK1/Cyclin E1; average): 61.1% | inhibition at 10 µM (CDK1/Cyclin E1; experiment 1): 52.9% | inhibition at 10 µM (CDK1/Cyclin E1; experiment 2): 69.2% | inhibition at 10 µM (CDK8/Cyclin C; average): 16% | inhibition at 10 µM (CDK8/Cyclin C; experiment 1): 44.2% | inhibition at 10 µM (CDK8/Cyclin C; experiment 2): -12.1% | inhibition at 10 µM (CDK10/Cyclin L2; average): 30.6% | inhibition at 10 µM (CDK10/Cyclin L2; experiment 1): 32.3% | inhibition at 10 µM (CDK10/Cyclin L2; experiment 2): 28.9% | inhibition at 10 µM (CDK17/Cyclin Y; average): 87.8% | inhibition at 10 µM (CDK17/Cyclin Y; experiment 1): 86.7% | inhibition at 10 µM (CDK17/Cyclin Y; experiment 2): 88.9% | inhibition at 10 µM (CDK3/Cyclin E1; average): 77.7% | inhibition at 10 µM (CDK3/Cyclin E1; experiment 1): 74.4% | inhibition at 10 µM (CDK3/Cyclin E1; experiment 2): 80.9%
